We go through three molecules from patent US6610883B1, “Compounds having selective activity for retinoid X receptors, and means for modulation of processes mediated by retinoid X receptors” (Ligand Pharmaceuticals, Inc., priority 1992, dated 2003).

The target of one assay is T1, RXRβ/VDR (UniProt P11473+P28704).
T1 construct: expressed in transfected cells; host or cells: CV-1
The assay is described as follows: Co-transfection of RXRβ and VD receptors in CV-1 cells. It counts as cell-based.

The next assay relates to apoA1. The assay is described as follows: Circulating apoA1 in rats (Western Blot). The following applies: 3 mg/kg orally, daily for four days. For orientation: A western blot detects proteins with antibodies after separation by electrophoresis.
The test system of a further assay is RXRα/PPAR. The assay is described as follows: Co-transfection of RXRα and PPAR in HepG2 cells. It counts as cell-based. The source says: Specifically, peroxisome proliferator-activated receptor (PPAR) is a member of the intracellular receptor super family that plays a role in the modulation of lipid homeostasis. […] These agents, called peroxisome proliferators, have been used in man as hypolipidemic agents.

For the next assay, the system named is HL60 cells. The assay is described as follows: HL60 differentiation (NBT reduction). It counts as cell-based.
For assay [1] the following is noted: rats. The protocol: Male Sprague-Dawley rats (160-200 gram) were obtained from Harlan. Animals were fed standard laboratory diets (Harlan/Teklad) and kept in an environmentally controlled animal house with a light period lasting from 6 a.m. to 6 p.m. Animals were treated with drugs prepared as suspensions in olive oil.
[…]
Plasma total cholesterol was measured enzymatically utilizing Boeringer Mannheim Diagnostics High Performance Cholesterol Methods with an ABBOTT VP Bichromatic Analyzer. cholesterol was measured after preparation of the HDL-containing fraction by heparin-manganese precipitation of plasma. HDL-cholesterol in this fraction was estimated as mentioned earlier. All HDL separations were checked for contamination by other lipoproteins with agarose gel electrophoresis.

Assay [2] deals with transglutaminase activity in the HL60 cells. The assay is described as follows: Transglutaminase induction in HL60 cells.
The subject of assay [3] is RPMI18226, a multiple myeloma. The assay is described as follows: Cell growth of RPMI18226. In kind it is cell-based, human. The following applies: RPMI18226, cell number and growth in semi-solid medium. The text has this:
(§1) The effects on growth of these cells were monitored by evaluation of cell number, and also by evaluation of growth in semi-solid medium for the RPMI18226 cell line. […] The therapeutic index is defined as the ratio of efficacy to toxicity of a compound.

The test system of assay [4] is ME180, a squamous cell carcinoma. The assay is described as follows: Cell growth of ME180. It counts as cell-based, human. Particulars: ME180, cell number.
Source text: as §1

Assay [5] has as its target T2, RARγ (Homo sapiens, UniProt P13631).
T2 sequence (P13631 1-454): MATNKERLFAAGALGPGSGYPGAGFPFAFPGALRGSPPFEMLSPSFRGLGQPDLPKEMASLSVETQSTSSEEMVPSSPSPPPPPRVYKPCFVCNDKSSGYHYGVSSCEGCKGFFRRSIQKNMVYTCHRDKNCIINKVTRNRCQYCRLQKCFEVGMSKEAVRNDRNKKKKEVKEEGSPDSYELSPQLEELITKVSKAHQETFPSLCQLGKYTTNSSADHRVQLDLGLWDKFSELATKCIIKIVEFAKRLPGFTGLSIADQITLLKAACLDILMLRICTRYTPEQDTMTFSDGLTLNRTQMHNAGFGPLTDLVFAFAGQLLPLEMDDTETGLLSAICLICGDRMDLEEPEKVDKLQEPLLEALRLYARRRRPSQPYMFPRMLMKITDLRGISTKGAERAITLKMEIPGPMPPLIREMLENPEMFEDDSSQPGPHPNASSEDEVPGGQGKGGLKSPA
The assay is described as follows: Co-transfection (cis-trans) assay in CV-1 cells, RARγ. In kind it is cell-based. More on the design: expressed in transfected cells; host or cells: CV-1 (monkey kidney). The source says:
(§2) The co-transfection assay provides a mechanism to evaluate the ability of a compound to modulate the transcription response initiated by an intracellular receptor. […] Berger, et al., J. Steroid Biochem Molec.
(§3) Briefly, the co-transfection assay involves the introduction of two plasmids by transient transfection into a retinoid receptor-negative mammalian cell background. The first plasmid contains a retinoid receptor cDNA and directs constitutive expression of the encoded receptor. The second plasmid contains a cDNA that encodes for a readily quantifiable protein, e.g., firefly luciferase or chloramphenicol acetyl transferase (CAT), under control of a promoter containing a retinoid acid response element, which confers retinoid dependence on the transcription of the reporter. In this co-transfection assay, all retinoid receptors respond to all-trans-retinoic acid in a similar fashion. This assay can be used to accurately measure efficacy and potency of retinoic acid and synthetic retinoids as ligands that interact with the individual retinoid receptor subtypes.
(§4) Accordingly, synthetic retinoid compounds of the current invention were evaluated for their interaction with retinoid receptor subtypes using the co-transfection assay in which CV-1 cells were co-transfected with one of the retinoid receptor subtypes, a reporter construct, and an internal control to allow normalization of the response for transfection efficiency. The following example is illustrative.
(§5) Retinoids: All-tans-retinoic acid (RA) and 13-cis-retinoic acid (13-cis-RA) were obtained from Sigma. […] Retinoids were dissolved in dimethylsulfoxide for use in the transcriptional activation assays.
(§6) Co-transfection Assay In CV-1 Cells: A monkey kidney cell line, CV-1, was used in the cis-trans assay. Cells were transfected with two plasmids. […] The cis-vector contains an easily assayable gene product, in this case the firefly luciferase, coupled to a retinoid-responsive promoter, i.e., an RARE or RXRE. Addition of retinoic acid or an appropriate synthetic retinoid results in the formation of a retinoid-RAR or -RXR complex that activates the expression of luciferase gene, causing light to be emitted from cell extracts. The level of luciferase activity is directly proportional to the effectiveness of the retinoid-receptor complex in activating gene expression. This sensitive and reproducible co-transfection approach permits the identification of retinoids that interact with the different receptor isoforms.
(§7) Cells were cultured in DMEM supplemented with 10% charcoal resin-stripped fetal bovine serum, and experiments were conducted in 96-well plates. […] Cells were transfected for 6 h and then washed to remove the precipitate. The cells were then incubated for 36 h with or without retinoid. After the transfection, all subsequent steps were performed on a Beckman Biomek Automated Workstation. […] All determinations were performed in triplicate in two independent experiments and were normalized for transfection efficiency by using β-galactosidase as the internal control. […] Efficacy values less than 5% are not statistically different than the 0% background.

For assay [6], the target named is T3, RARα (Homo sapiens, UniProt P10276).
T3 sequence (P10276 1-462): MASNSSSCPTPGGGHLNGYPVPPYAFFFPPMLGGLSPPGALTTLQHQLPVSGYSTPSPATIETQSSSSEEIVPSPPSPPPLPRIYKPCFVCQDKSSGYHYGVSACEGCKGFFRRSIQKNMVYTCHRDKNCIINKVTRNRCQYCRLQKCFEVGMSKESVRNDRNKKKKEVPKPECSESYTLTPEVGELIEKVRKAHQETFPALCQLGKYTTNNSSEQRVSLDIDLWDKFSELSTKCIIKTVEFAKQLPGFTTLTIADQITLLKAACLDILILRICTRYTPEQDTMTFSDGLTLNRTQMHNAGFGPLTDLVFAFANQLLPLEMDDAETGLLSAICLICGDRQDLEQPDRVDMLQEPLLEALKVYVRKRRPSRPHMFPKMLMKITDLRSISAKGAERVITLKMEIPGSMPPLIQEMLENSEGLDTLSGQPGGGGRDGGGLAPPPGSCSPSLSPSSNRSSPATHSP
The assay is described as follows: Radioligand displacement binding, RARα. Also on record: made in house. The following applies: displacement of radiolabeled retinoic acid, read-out: Binding (Kd50 nM). On the technique in general: In a radioligand displacement assay an active substance lowers the binding of a labelled ligand.
Experimental: (§8) The binding parameters of receptors expressed in baculovirus systems and mammalian systems are essentially identical.
(§9) By testing the abilities of various synthetic retinoids to compete with the radiolabeled retinoic acid for binding to various receptor isoforms, the ability of the compounds to directly interact with the receptor can be examined, and the relative dissociation constant for the receptor itself can be determined.
(§10) The Kd values were determined by application of the Cleng-Prusoff equation. These values were based on a determination of the IC50 value as determined graphically from a log-logit plot of the data.

Assay [7] addresses T4, RARβ (Homo sapiens, UniProt P10826).
T4 sequence (P10826 1-455): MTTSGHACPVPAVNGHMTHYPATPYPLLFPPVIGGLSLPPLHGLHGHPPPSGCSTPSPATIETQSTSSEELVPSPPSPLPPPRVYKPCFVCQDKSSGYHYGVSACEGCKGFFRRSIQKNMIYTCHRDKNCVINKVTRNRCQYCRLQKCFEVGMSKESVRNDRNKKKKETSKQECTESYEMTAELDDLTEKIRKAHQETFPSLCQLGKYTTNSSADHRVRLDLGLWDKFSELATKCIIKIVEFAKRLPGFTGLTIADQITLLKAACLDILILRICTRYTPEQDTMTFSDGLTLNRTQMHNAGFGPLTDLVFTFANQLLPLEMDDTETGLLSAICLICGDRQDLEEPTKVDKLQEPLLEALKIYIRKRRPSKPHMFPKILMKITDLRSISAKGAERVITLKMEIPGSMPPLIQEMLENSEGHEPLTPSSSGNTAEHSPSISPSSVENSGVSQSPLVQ
The assay is described as follows: Radioligand displacement binding, RARβ.
Experimental: as §8, §9, §10

In assay [8] the target is T3, RARα. The assay is described as follows: Co-transfection (cis-trans) assay in CV-1 cells, RARα. It counts as cell-based. More on the design: expressed in transfected cells; host or cells: CV-1 (monkey kidney).
Source text: as §2, §3, §4, §5, §6, §7

Assay [9] deals with T2, RARγ. The assay is described as follows: Radioligand displacement binding, RARγ.
Experimental: as §8, §9, §10
Assay [10] has as its target T4, RARβ. The assay is described as follows: Co-transfection (cis-trans) assay in CV-1 cells, RARβ. In kind it is cell-based. More on the design: expressed in transfected cells; host or cells: CV-1 (monkey kidney).
Source text: as §2, §3, §4, §5, §6, §7

Where [11] appears, read: CV-1, maximal response relative to all-trans-retinoic acid at 10^−5 M, read-out: Efficacy.
[12] abbreviates: CV-1 cells, luciferase reporter, 36 h, read-out: Potency.

T1 sequence (P28704 whole entry): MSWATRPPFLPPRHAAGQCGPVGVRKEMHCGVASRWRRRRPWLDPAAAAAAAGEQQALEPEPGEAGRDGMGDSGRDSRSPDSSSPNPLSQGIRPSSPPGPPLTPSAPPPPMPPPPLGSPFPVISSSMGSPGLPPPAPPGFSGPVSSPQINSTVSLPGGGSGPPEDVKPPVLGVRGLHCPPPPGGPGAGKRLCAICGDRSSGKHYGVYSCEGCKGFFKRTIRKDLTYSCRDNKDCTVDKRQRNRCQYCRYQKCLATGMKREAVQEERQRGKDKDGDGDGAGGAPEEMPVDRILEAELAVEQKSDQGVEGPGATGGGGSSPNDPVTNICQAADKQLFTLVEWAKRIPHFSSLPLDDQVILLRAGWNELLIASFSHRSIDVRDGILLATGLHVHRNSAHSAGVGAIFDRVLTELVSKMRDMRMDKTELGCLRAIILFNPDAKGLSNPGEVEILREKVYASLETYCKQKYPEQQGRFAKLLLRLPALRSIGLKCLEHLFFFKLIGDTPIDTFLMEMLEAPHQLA
T1 sequence (P11473 whole entry): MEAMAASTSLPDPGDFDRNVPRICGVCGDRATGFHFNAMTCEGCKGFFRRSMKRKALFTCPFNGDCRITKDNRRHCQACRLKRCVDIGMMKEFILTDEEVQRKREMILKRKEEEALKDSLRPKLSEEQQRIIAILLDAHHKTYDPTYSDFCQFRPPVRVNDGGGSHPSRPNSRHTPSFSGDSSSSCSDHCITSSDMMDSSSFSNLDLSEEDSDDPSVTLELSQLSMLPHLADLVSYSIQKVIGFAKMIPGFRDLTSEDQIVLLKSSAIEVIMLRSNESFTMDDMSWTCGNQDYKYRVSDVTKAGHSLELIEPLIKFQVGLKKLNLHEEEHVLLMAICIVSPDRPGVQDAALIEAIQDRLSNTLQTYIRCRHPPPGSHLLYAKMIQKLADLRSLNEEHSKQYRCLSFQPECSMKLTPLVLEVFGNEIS
Source text for apoA1: Serum samples were taken and analyzed by Western Blot using antisera specific to rat apoA1.

For the molecule 1,25-dihydroxy-vitamin D, the “Normalized Response (%)” value on RXRβ/VDR stood at 100%.
For the molecule `C=C(c1ccc(C(=O)O)cc1)c1cc2c(cc1C)C(C)(C)CCC2(C)C` [3-methyl-TTNEB, 4-[1-(3,5,5,8,8-pentamethyl-5,6,7,8-tetrahydro-2-naphthyl)ethenyl]benzoic acid], the “Circulating apoA1 level” value with apoA1 is “significant increase in circulating apoA1 level”. Moreover, the “Normalized Response (%)” value in the assay on RXRα/PPAR amounted to 90%. In addition, in the assay with HL60 cells (HL60), the “Induction of differentiation (NBT reduction)” value is “not to induce undue differentiation”. The EC50 with HL60 cells (Homo sapiens, HL-60, read-out: EC50 for mediated differentiation) is greater than 1000 µM. Further, the HDL levels result in assay [1] (100 mg/kg i.p., 4 days) is “substantial and statistically significant increases in HDL levels”. Also, the “Development of tolerance to pharmacological action” value in assay [1] (30 day p.o. study, 10, 30, or 100 mg/kg) was “did not indicate development of tolerance”. Further, in assay [1] (four days), the Total cholesterol result is on record as “showed an increase due to the increase of the HDL-cholesterol fraction” and the Triglycerides result is “either no change or a slight decrease”. The “Lowest dose with significant increase of HDL-cholesterol” value in assay [1] (i.p., four days) amounted to 0.3 mg/kg. Further, the “Increase of plasma HDL-cholesterol” value in assay [1] (optimally efficacious dose) is “greater than 60%”. In addition, the “Induction of transglutaminase activity” value in assay [2] is on record as “induce transglutaminase activity in the HL60 cells”. For the same molecule, the “Effect on cell growth” value in assay [3] was “inhibit cell growth in a concentration-dependent manner”. Also, the “Effect on cell growth” value in assay [4] is reported as “inhibit cell growth in a concentration-dependent manner”.
Turning to `C=C(c1ccc(C(=O)O)cn1)c1cc2c(cc1C)C(C)(C)CCC2(C)C` [TPNEP (58), 2-[1-(3,5,5,8,8-pentamethyl-5,6,7,8-tetrahydro-2-naphthyl)ethenyl]pyridine-5-carboxylic acid], the Emax at 10 µM on RARγ [5] (setting [11]) was 24%; at RARα [8] (setting [11]), less than 2%; at RARβ [10] (setting [11]), less than 2%. For the same molecule, the figures for the EC50 at RARγ [5] (setting [12]), at RARα [8] (setting [12]) and at RARβ [10] (setting [12]) were 1.5 µM, greater than 10 µM and greater than 10 µM, respectively. The Kd on RARα [6] is 7.8 µM; at RARβ [7], 4.9 µM; at RARγ [9], 6 µM.
